The values below come from US12564586B2, “Kappa opiod receptor antagonists for treating pain-related sleep disorders” (ARIZONA BOARD OF REGENTS ON BEHALF OF THE UNIVERSITY OF …, priority 2020, dated 2026).

The test system of one assay is sham surgery mice. The assay is described as follows: EEG/EMG sleep evaluation in sham surgery mice. The format is in vivo, C57BL/6J mice. How it is done: Norbinaltorphimine (nor-BNI) was dissolved in 0.9% saline to 10 mg/kg just before injection. C57BL/6J mice received intraperitoneal injection of nor-BNI or vehicle (0.9% saline) 30 minutes before EEG/EMG record at 10 days after partial sciatic nerve ligation (PSNL) surgery (FIG. 2A). CYM-53093 was synthesized as described previously by Guerrero et al. It was dissolved in DMSO, tween and saline at a ratio of 1:1:8. C57BL/6J mice were implanted with a micro-osmotic pump under the skin at 8 days after PSNL surgery and received continuous infusion of CYM-53093 (10 mg/kg/day) or vehicle. Mice had surgical recovery for 1 day after pump implantation followed by EEG/EMG record for 5 days (FIG. 3A).
EEG/EMG recording head-mount implantation was done under 2-5% isoflurane anesthesia, mice were implanted with EEG and EMG electrodes for polysomnographic recordings (Pinnacle Technology, Oregon, USA) as described previously by Ito et al. Recording was done in awake animals after acclimatization using EEG/EMG mouse sleep equipment from Pinnacle Technology. The collected EEG/EMG data were analyzed by software (Sleepsign; Kissei Comtec, Japan). The vigilance of every 5-second epoch was automatically classified into three stages, i.e., wakefulness, REM and non-REM sleep, according to the standard criteria. As a final step, defined sleep-wake stages were examined visually and corrected, if necessary. The vigilance states were assessed as follows: 1) wakefulness was defined by a high EMG amplitude, low EEG amplitude; 2) REM sleep was defined by a low EMG amplitude, low EEG amplitude, and high 0 wave (5.0-10.0 Hz) activity; and 3) non-REM sleep was defined by a low EMG amplitude, high EEG amplitude, and high 8 wave (0.65-4.5 Hz) activity.
To investigate the effect of the long acting KOR antagonist, nor-BNI, on sleep disruption in preclinical model of chronic pain, the percentage of sleep time for 24 hours between the groups administered nor-BNI or vehicle 10 days after partial sciatic nerve ligation (PSNL), and baseline before PSNL surgery were compared (FIG. 2A). The sham groups were also evaluated in the same time series as PSNL groups. […] First, in order to evaluate the sleep-wake cycle of each group, the changes in the percentage of sleep time were examined every two hours. […] Secondly, the percentage of total sleep (FIG. 2D), non-REM sleep (FIG. 2E), and REM sleep (FIG. 2F) were evaluated and time in the light phase and dark phase were evaluated separately. […] Then, duration of awake and non-REM sleep was evaluated at 6-hour intervals (early and late light phase and early and late dark phase), and compared between baseline, sham/vehicle group, PSNL/vehicle group, sham/nor-BNI group, and PSNL/nor-BNI group.

Assay [1] deals with PSNL mice (chronic neuropathic pain model). The assay is described as follows: EEG/EMG sleep evaluation in the chronic pain model induced by partial sciatic nerve ligation (PSNL). The format is in vivo, C57BL/6J mice. The settings on record: for duration of non-REM sleep (sleep fragmentation): 6-hour intervals; for components of pain-related sleep disturbance (sleep time loss, fragmentation of sleep, daytime sleepiness): mouse model of chronic neuropathic pain, summary statement.

The next assay concerns PSNL mice. The assay is described as follows: von Frey test (paw withdrawal threshold, tactile allodynia). Particulars: nor-BNI, naïve or injured (PSNL) animals. The class given is in vivo.
[2] abbreviates: sham animals, nor-BNI treated vs vehicle treated.
[3] abbreviates: PSNL group, nor-BNI 10 mg/kg i.p.
[4] abbreviates: PSNL, continuous infusion of CYM-53093 10 mg/kg/day, 10 mg/kg/day.

“Also recorded” adds a separate entry of the source.

Consider `Oc1ccc2c3c1O[C@H]1c4[nH]c5c(c4C[C@@]4(O)[C@@H](C2)N(CC2CC2)CC[C@]314)C[C@@]1(O)[C@H]2Cc3ccc(O)c4c3[C@@]1(CCN2CC1CC1)[C@H]5O4` [nor-BNI, Norbinaltorphimine], for which, in the assay with sham surgery mice (setting [2]), the “percentage of non-REM sleep” value was “no significant difference in the percentage of total sleep and non-REM sleep”; the “percentage of total sleep” value is “no significant difference in the percentage of total sleep and non-REM sleep”. Also, the “sleep time (percentage of sleep time every two hours)” value in the assay on sham surgery mice (sham groups, nor-BNI 10 mg/kg i.p.) is listed as “had no effect in the sham surgery group; also recorded: had no significant effect on sleep time”. For the same molecule, the REM sleep time entry in the assay with sham surgery mice (sham mice, nor-BNI 10 mg/kg i.p.) is “significantly reduced REM sleep time in sham mice”. Besides, in assay [1] (setting [3]), the REM sleep time entry is “did not improve REM sleep time”; the “duration of wakefulness during the early half of the dark phase” value is given as “improved the inability to stay awake during the dark (active) time of the day; also recorded: tended to extend this duration somewhat, it was not significant”; the non-REM sleep time entry is “increased non-REM sleep time”; the “duration of non-REM sleep (sleep fragmentation)” value was “improved sleep fragmentation in PSNL during non-REM sleep”. For the same molecule, the “percentage of total sleep” value in assay [1] (PSNL group, nor-BNI 10 mg/kg i.p. 10 days after PSNL, light phase) was 71.4±1.3%. Further, the “duration of non-REM sleep (sleep fragmentation)” value in assay [1] (PSNL group, nor-BNI 10 mg/kg i.p., listed as Nor-BNI) is given as “improved this fragmented sleep by PSNL”. In assay [1] (PSNL group, nor-BNI 10 mg/kg i.p., vs baseline before PSNL surgery), the “sleep time (percentage of sleep time every two hours)” value was “normalized the deficit of sleep time of the partial sciatic nerve ligation (PSNL) group to the same as baseline; also recorded: normalized the reduction of sleep time of the PSNL group almost to the same level as baseline”. In addition, in assay [1], the “components of pain-related sleep disturbance (sleep time loss, fragmentation of sleep, daytime sleepiness)” value is “improved several important components of pain-related sleep disturbance”. Besides, in assay [1] (nor-BNI 10 mg/kg i.p.), the “power spectrum during non-REM sleep” value is reported as “did not change the power spectrum; also recorded: unchanged in both groups”. For the same molecule, in the assay with PSNL mice, the “evoked (mechanical/tactile) allodynia, paw withdrawal threshold” value is recorded as “did not alter mechanical allodynia in naïve or injured animals; also recorded: did not influence the evoked allodynia”.

Consider `CCc1cc(F)c2nc(N3CCC(NC4CCOCC4)CC3)c(-c3nc(C)no3)c(C)c2c1` [CYM53093], for which the “fragmentation of non-REM sleep” value in assay [1] (PSNL, continuous infusion of CYM-53093 10 mg/kg/day) is “normalized fragmentation of non-REM sleep”. In addition, the sleep time result in assay [1] (PSNL, continuous infusion of CYM-53093 10 mg/kg/day by micro-osmotic pump, 5-day recording, 10 mg/kg/day) is “normalized the reduction of sleep time up until day 4; also recorded: normalized the reduction of sleep time and the effect lasted at least until day 4”. Further, in assay [1] (PSNL, continuous infusion of CYM-53093 10 mg/kg/day, test day 4, 10 mg/kg/day), the “power density of δ wave during non-REM sleep” value is listed as “no change in the power density; also recorded: did not change”. Also, in assay [1] (setting [4]), the REM sleep result is recorded as “did not improve REM sleep”; the “duration of wakefulness at the first half of the dark phase” value is “improved non-REM sleep, wakefulness during the first part of the dark phase; also recorded: improved short duration of wakefulness at the first half of the dark phase”; the non-REM sleep result is recorded as “improved non-REM sleep; also recorded: mainly influenced non-REM sleep”. In assay [1], the “components of pain-related sleep disturbance (sleep time loss, fragmentation of sleep, daytime sleepiness)” value is recorded as “improved several important components of pain-related sleep disturbance”.
